According to paper PMC10577883, “Design and Optimization of Novel Competitive, Non-peptidic, SARS-CoV-2 M^pro Inhibitors” (ACS Medicinal Chemistry Letters, 2023):
Values joined by “and” are separate entries in the source; they are usually repeats but may differ in a detail not shown here. Equal entries are not always repeated. Where two headings read alike, the source gives them in different places.

How the values were obtained:
[1] = test system: SARS-CoV-2 Mpro; details: cited from earlier work
[2] = in vitro; details: chlorocebus sabaeus
[3] = test system: SARS-CoV-2-Nluc reporter virus; test: microbe, parasite or virus in culture; assay type: cell-based; details: for EC50: Severe acute respiratory syndrome coronavirus 2, VeroE6/TMPRSS2 cells, parentheses denote 95% confidence intervals
[4] = target: SARS-CoV-2 Mpro (3CLpro) (Severe acute respiratory syndrome coronavirus 2, UniProt P0DTD1); test: SARS-CoV-2 recombinant protease enzymatic assay (FRET); assay type: biochemical; details: recombinant Mpro, FRET peptide substrate
[5] = Human liver microsome stability assay
Experimental: Metabolic Stability Assay
(§2) Liver Microsome Stability Assay Protocol
(§3) Human liver microsomes (HLMs, 20 mg/mL), CD-1 mouse liver microsomes (MLMs, 20 mg/mL), Sprague Dawley
(§4) rat liver microsomes (RLMs, 20 mg/mL) were purchased from Xenotech. NADPH was purchased from Sigma-
(§5) Aldrich and prepared in 10 mM stock solutions of distilled H2O (InvitrogenTM UltraPureTM). Verapamil and
(§6) diphenhydramine were both purchased from Sigma-Aldrich and served as positive controls for LM stability assays.
(§7) Test compounds and positive controls were initially dissolved in DMSO to make 10 mM stock solutions. Sample
(§8) solutions were then further diluted in 100% MeCN to 500 μM. Next, the reactions were prepared by mixing human
(§9) or mouse liver microsomes (55 μL) with potassium phosphate buffer (100 mM, 928 μL) in 1.5 mL Eppendorf tubes.
(§10) The test compounds (6.6 μL of 500 μM solution) were subsequently added to the suspensions, and the reaction
(§11) mixtures were incubated at 37 °C for 5 min. Afterward, the liver microsome reactions were initiated with 110 μL
(§12) of 10 mM NADPH and further incubated at 37 °C for the designated time course of the study. This procedure
(§13) provided experiments with a final volume of 1100 μL (0.6% organic solvent content) and a final test compound
(§14) concentration of 3 μM. Aliquots (100 μL) were removed from each reaction mixture in duplicate at 0, 5, 10, 15,
(§15) and 30 min time intervals and quenched with 100 μL of cold internal standard solution (ISTD, 2 μM
(§16) 7-ethoxy-d 5-coumarin in MeOH or MeCN). Quenched aliquots were then centrifuged at 12,500 g for 5-10 min, and
(§17) the resulting supernatants were withdrawn and placed in LC-MS vials to be analyzed by LC-MS/MS (Agilent
(§18) G6460C QQQ MS coupled with an Infinity II 1260 HPLC). Each test compound was run in tandem with positive and
(§19) negative control experiments for quality assurance. Positive control reactions were conducted at a final volume
(§20) of 550 μL for a single run of each time point. Lastly, the negative control experiment was conducted with test
(§21) compounds and liver microsomes in the absence of NADPH (150 μL) and analyzed at the 30 min time point.
(§22) Data Analysis. Each data point was analyzed in triplicate using in-between blank washes to avoid carry over and
(§23) to equilibrate the column for the subsequent runs. Averages of these triplicates for individual compounds at each
(§24) time point were then normalized to the data at 0 min, representing 100% test compound remaining or 0%
(§25) metabolism. Half-lives (t 1/2) were calculated by plotting ln of % test compound remaining versus time and
(§26) performing linear regression to determine slope.
(§27) Instrumentation and LC-MS/MS Method Development
(§28) LC-MS/MS analyses were conducted on an Agilent 1260 Infinity II HPLC equipped with an Agilent G6460 triple
(§29) quadrupole mass spectrometer (Agilent Technologies, USA). Reverse-phase HPLC separation for each compound
(§30) m) column maintained at 40 °C. The mobile phase used during analyses consisted of either MeOH-H2O (0.1% FA)
(§31) or MeCN-H2O (0.1% FA) at a flow rate of 0.5 mL/min. Each method was developed in the presence of the internal
(§32) standard (ISTD), 7-ethoxy-d 5-coumarin. Precursor and product ion detection was performed with Agilent Jet
(§33) Stream electrospray positive ionization (ESI+) in multiple reaction monitoring (MRM) mode. All MRM transitions,
(§34) MS conditions were as follows: dwell time of 100 ms; gas flow of 10 L/min; nebulizer pressure of 45 psi; delta EMV
(§35) of 200 V. Lastly, all acquired data was processed using Agilent 6460 Quantitative Analysis software.

[6] = Oral dose escalation pharmacokinetics (10 and 100 mg/kg PO); assay type: in vivo, rat; details: for AUC(0-inf) / Cmax / Tlast / Tmax / half-life / concentration at 24 h: rat plasma, mean ± SD, n = 3; for concentration at 24 h: read-out: Clast
Experimental: (§1) To this end, 36 was studied in male Sprague–Dawley rats following a single intravenous dose at 0.25 mg/kg and an oral dose at 0.5 mg/kg (SI, Table S18).
Table S19. Summary of Pharmacokinetic Parameters (nmol/mL) for Compound 36 in Rat Plasma after a Single Oral
Dose of 36 at 10 mg/kg or 100 mg/kg
Dose Tmax Cmax Tlast Clast AUCinf t1/2
(mg/kg) (h) (nmol/mL) (h) (nmol/mL) (h*nmol/mL) (h)
Results are shown as averages and standard deviations (n = 3).
Figure S18. Average Concentrations (nmol/mL) of Compound 36 in Rat Plasma after a Single Oral Dose of 36 at 10
Left panel: Linear Scale, Right panel: Log Scale. Results are shown as averages and standard deviations (n = 3). […]

[7] = Mouse liver microsome stability assay
Experimental: Metabolic Stability Assay
as §2, §3, §4, §5, §6, §7, §8, §9, §10, §11, §12, §13, §14, §15, §16, §17, §18, §19, §20, §21, §22, §23, §24, §25, §26, §27, §28, §29, §30, §31, §32, §33, §34, §35

[8] = Rat liver microsome stability assay; details: 37 °C
Experimental: Metabolic Stability Assay
as §2, §3, §4, §5, §6, §7, §8, §9, §10, §11, §12, §13, §14, §15, §16, §17, §18, §19, §20, §21, §22, §23, §24, §25, §26, §27, §28, §29, §30, §31, §32, §33, §34, §35

[9] = Pharmacokinetics after single IV and PO administration; assay type: in vivo, Male Sprague Dawley rats; details: male, Sprague-Dawley, rat, plasma
Experimental: as §1
Figure S16: Metabolite identification study of Compound 43 in liver microsomes using liquid chromatography coupled to high resolution mass spectrometry (LC-HRMS). The identification of metabolite Compound 43 M1 […]
MS analysis was performed using full scan from a mass range of 100-700 m/z at 60k resolution with data dependent MS/MS and MSn programs enabled for the top 5 ions detected for each scan. Compounds are detected based on their MS1 precursor ion accurate mass m/z and identified with matching theoretical and observed accurate mass MS1 ions with interpretation of accurate mass MS/MS spectra from expected […]
Table S18: Pharmacokinetic data of Compound 36 in Male Sprague Dawley rats following a single intravenous and oral administration (Dose: 0.25 mg/kg, IV and 0.5 mg/kg, PO)
Dose Tmax aC0/Cmax T1/2 CL Vss
Matrix Route AUClast AUCinf (mL/min %F […]
a – Back extrapolated concentration in IV group.
Figure S17: Plasma concentrations-time profiles (mean ± SD) of Compound 36 in Male Sprague Dawley rats following a single intravenous and oral administration (Dose: 0.25 mg/kg, IV and 0.5 mg/kg, PO) […]
(1 picture or pasted object on this page, not shown here)

Structure (SMILES): N#Cc1ccccc1-c1cc(-c2cccc(Cl)c2)c(=O)n(-c2cccnc2)c1 [Compound 2]
- IC50 ([1]; literature value): 9990 nM
- improvement in potency over 1 ([1]; relative to perampanel 1): 10 fold

Structure (SMILES): O=c1[nH]cccc1-c1cn(-c2cc(Cl)cc(Cl)c2)c(=O)n(-c2cccnc2)c1=O [Compound 6]
- CC50 [2]: > 100000 nM
- EC50 range in words [3]: sub-micromolar
- EC50 [3]: 500 nM
- IC50 [4]: 276 nM and 280 nM

Structure (SMILES): O=c1ccc(-c2cn(-c3cc(Cl)cc(Cl)c3)c(=O)n(-c3cccnc3)c2=O)c[nH]1 [Compound 7]
- CC50 [2]: > 100000 nM
- EC50 [3]: > 20000 nM
- IC50 [4]: 1580 nM and 1590 nM

Structure (SMILES): O=c1[nH]cccc1-c1cn(-c2cc(Cl)cc(OCC3CC3)c2)c(=O)n(-c2cccnc2)c1=O [Compound 35]
- CC50 [2]: > 100000 nM
- EC50 [3]: 820 nM
- IC50 [4]: 100 nM

Structure (SMILES): O=c1[nH]cccc1-c1cn(-c2cc(Cl)cc(OCCC(F)(F)F)c2)c(=O)n(-c2cccnc2)c1=O [Compound 36]
- CC50 [2]: > 100000 nM
- HLM percentage remaining after 30 min ([5]; 3 μM, 37 °C, 30 min): 91.7% and 91.71%
- half-life at 3 µM ([5]; human, microsomes): > 0.5 h
- remaining at 5 min, 3 µM ([5]; human, microsomes): 98.2%
- remaining at 10 min, 3 µM ([5]; human, microsomes): 97.7%
- remaining at 0.25 h, 3 µM ([5]; human, microsomes): 98.2%
- increase in AUC on 10-fold increase in dose ([6]; 10 mg/kg vs 100 mg/kg PO): 2 fold
- AUC(0-inf) ([6]; PO 10 mg/kg): 23.2 ± 2.18 µM·h
- Cmax ([6]; PO 10 mg/kg): 2610 ± 476 nM
- Tlast ([6]; PO 10 mg/kg): 24.0 ± 0.00 h
- Tmax ([6]; PO 10 mg/kg): 1.67 ± 0.577 h
- half-life ([6]; PO 10 mg/kg): 2.68 ± 0.31 h
- concentration at 24 h ([6]; PO 10 mg/kg): 12.6 ± 6.27 nM
- AUC(0-inf) ([6]; PO 100 mg/kg): 49.9 ± 4.53 µM·h
- Cmax ([6]; PO 100 mg/kg): 4130 ± 161 nM
- Tlast ([6]; PO 100 mg/kg): 24.0 ± 0.00 h
- Tmax ([6]; PO 100 mg/kg): 2.33 ± 1.53 h
- half-life ([6]; PO 100 mg/kg): 3.73 ± 1.08 h
- concentration at 24 h ([6]; PO 100 mg/kg): 114 ± 105 nM
- EC50 [3]: 1350 nM
- MLM percentage remaining after 30 min ([7]; 3 μM, 37 °C, 30 min): 73.3% and 73.26%
- half-life at 3 µM ([7]; CD-1, mouse, microsomes): > 0.5 h
- remaining at 5 min, 3 µM ([7]; CD-1, mouse, microsomes): 93.9%
- remaining at 10 min, 3 µM ([7]; CD-1, mouse, microsomes): 90.1%
- remaining at 0.25 h, 3 µM ([7]; CD-1, mouse, microsomes): 83.8%
- RLM percentage remaining after 30 min ([8]; 3 μM, 30 min): 86.4% and 86.41%
- remaining at 5 min, 3 µM ([8]; Sprague-Dawley, rat, microsomes, RLM Rel % remaining, 5 min): 95.4%
- remaining at 10 min, 3 µM ([8]; Sprague-Dawley, rat, microsomes, RLM Rel % remaining, 10 min): 90.9%
- remaining at 0.25 h, 3 µM ([8]; Sprague-Dawley, rat, microsomes, RLM Rel % remaining, 15 min): 88.8%
- half-life at 3 µM ([8]; Sprague-Dawley, rat, microsomes, RLM t1/2, 3 μM, unit inferred): > 0.5 h
- bioavailability ([9]; PO 0.5 mg/kg vs IV 0.25 mg/kg, read-out: %F (oral bioavailability)): 40.6% and 41%
- AUC(0-inf) ([9]; IV 0.25 mg/kg): 1680 ng·h/mL
- AUC(0-t) ([9]; IV 0.25 mg/kg): 1610 ng·h/mL
- clearance ([9]; IV 0.25 mg/kg): 2.49 mL/min/kg
- half-life ([9]; IV 0.25 mg/kg): 1.71 h
- C0 ([9]; IV 0.25 mg/kg, read-out: C0 (back extrapolated concentration)): 1330 ng/mL
- Vd ([9]; IV 0.25 mg/kg, read-out: Vss): 0.33 L/kg
- AUC(0-inf) ([9]; PO 0.5 mg/kg): 1690 ng·h/mL
- AUC(0-t) ([9]; PO 0.5 mg/kg): 1310 ng·h/mL
- Cmax ([9]; PO 0.5 mg/kg): 285 ng/mL
- Tmax ([9]; PO 0.5 mg/kg): 1.67 h
- IC50 [4]: 55 nM

Structure (SMILES): O=c1[nH]cccc1-c1cn(-c2cc(Cl)cc(OCc3scnc3C(F)(F)F)c2)c(=O)n(-c2cccnc2)c1=O [Compound 37]
- CC50 [2]: > 100000 nM
- EC50 [3]: 2400 nM
- IC50 [4]: 43 nM

Structure (SMILES): O=c1[nH]cccc1-c1cn(-c2cc(Cl)cc(OCc3nc4ccccc4n3C(F)F)c2)c(=O)n(-c2cccnc2)c1=O [Compound 38]
- CC50 [2]: > 100000 nM
- EC50 [3]: 1890 nM
- IC50 [4]: 21 nM

Structure (SMILES): Cc1scnc1COc1cc(Cl)cc(-n2cc(-c3ccc[nH]c3=O)c(=O)n(-c3cccnc3)c2=O)c1 [Compound 39]
- CC50 [2]: > 100000 nM
- EC50 [3]: 5000 nM
- IC50 [4]: 17 nM
